Assay type in all cases: cell-based
In one assay the test system is Staph. 133. The assay is described as follows: MIC by serial dilution on Iso-Sensitest Agar. As to conditions: 37° C., about 20 hours. How it is done:
(§1) The minimum inhibitory concentrations (MIC) were determined by serial dilution methods on Iso-Sensitest Agar (Oxoid). For each test substance, a number of agar plates were prepared which, with an in each case doubled dilution, contained decreasing concentrations of the active compound. The agar plates were inoculated with the multipoint inoculator (Denley). For inoculation, overnight cultures of the caustive organisms were used which had previously been diluted such that each inoculation point contained about 10^4 colony-forming particles. The inoculated agar plates were incubated at 37° C., and the microorganism growth was read off after about 20 hours. The MIC value (μg/ml) indicates the lowest active compound concentration at which no growth could be detected using the naked eye.

In the next assay the test system is Psdm. Bonn. The assay is described as follows: MIC by serial dilution on Iso-Sensitest Agar. How it is done:
as §1

The next assay deals with Staph. 9TV. The assay is described as follows: MIC by serial dilution on Iso-Sensitest Agar. The note with it: 37° C., about 20 hours. How it is done: as §1
The next assay has as its system Staph. 48N. The assay is described as follows: MIC by serial dilution on Iso-Sensitest Agar. As to conditions: 37° C., about 20 hours. How it is done:
as §1

A further assay has as its system Staph. 25701. The assay is described as follows: MIC by serial dilution on Iso-Sensitest Agar. The note with it: 37° C., about 20 hours. As for the experimental part: as §1
The subject of a further assay is E. coli Neumann. The assay is described as follows: MIC by serial dilution on Iso-Sensitest Agar. As to conditions: Escherichia coli. How it is done: as §1
Another assay has as its system Klebs. 57 USA. The assay is described as follows: MIC by serial dilution on Iso-Sensitest Agar. As for the experimental part: as §1
The test system of assay [1] is Mycobacterium smegmatis DSM 43061. In words: MIC by broth microdilution, rapidly growing mycobacteria. As to conditions: Mycolicibacterium smegmatis, DSM43061; strain DSM 43061; inoculum 2.20E + 04 /ml; 37° C., 2-4 days. How it is done: (§2) For rapidly growing mycobacteria the MIC determination was carried out following the broth microdilution method described by Swenson [cf. J. M. Swenson, C. Thomberry, U. A. Silcox, Rapidly growing mycobacteria. Testing of susceptibility to 34 antimicrobial agents by broth microdilution. Antimicrobial Agents and Chemotherapy Vol. 22, 186-192 (1982)]. A deviation from this was the brain-heart extract medium treated with 0.1% by volume of Tween 80.
(§3) The mycobacterial strains used were obtained from the DSM (German Collection of Microorganisms, Brunswick). They were incubated at 37° C. in a humid chamber.
(§4) The MIC values were read off after 2-4 days when the preparation-free controls had become turbid due to growth.
Background: Dilution methods test growth across graded concentrations, often in twofold steps.

The test system of assay [2] is Mycoplasma pneumoniae strain PI 1428. The assay is described as follows: MIC determination with Mycoplasma pneumoniae, serial microdilution. The note with it: PI1428, PPLO medium, anaerobic, 37° C., Alamar Blue. How it is done:
MIC determination with Mycoplasma pneumoniae
Mycoplasma pneumoniae strain PI 1428 was cultured under anaerobic conditions in PPLO medium, to which 1% glucose, 2.5% yeast extract, 20% horse serum (donor horse serum) and 0.002% Phenol Red were added. MIC determinations were carried out following the serial microdilution method in liquid medium described by ter Laak and coworkers (E. A. ter Laak, A. Pijpers, J. H. Noordergraaf, E. Schoevers, J. H. M. Verheijden: Comparison of Methods for in vitro Testing of Susceptibility of Porcine Mycoplasma Species to Antimicrobial Agents; Antimicrobial Agents and Chemotherapy, Vol. 35, 228-233 (1991)). At the time of the start of the colour change of the medium of the preparation-free control from red to yellow, 10% by volume of Alamar Blue was added. The incubation at 37° C. was continued for about 10 hours and the MIC defined as the value at which the medium having the smallest preparation concentration remained unchanged blue.

For assay [3], the system named is Mycobacterium smegmatis DSM 43078. In words: MIC by broth microdilution, rapidly growing mycobacteria. As to conditions: Mycolicibacterium smegmatis, DSM43078; strain DSM 43078; inoculum 4.20E + 04 /ml; 37° C., 2-4 days. As for the experimental part: as §2, §3, §4
Setting [4] is: Psdm. Bonn, 37° C., about 20 hours, read-out: MIC.
Setting [5] is: E. coli Neumann, 37° C., about 20 hours, read-out: MIC.
Where [6] appears, read: Klebs. 57 USA, 37° C., about 20 hours, read-out: MIC.

In brackets after ≈: the same amount, converted by molar mass. Read-outs that look alike come from different tables or passages of the source.

As usually defined, the MIC is the lowest concentration that inhibits growth of the organism.

Regarding `CCC(=S)NC[C@H]1CN(c2ccc3ccsc3c2)C(=O)O1` [Example 11], the minimal inhibitory concentration (MIC) was 0.5 µg/mL (≈ 1.56 µM) against Staph. 133; more than 64 µg/mL against Psdm. Bonn (20 h); 0.25 µg/mL (≈ 0.78 µM) against Staph. 9TV; 0.5 µg/mL (≈ 1.56 µM) in the assay with Staph. 48N; 0.25 µg/mL (≈ 0.78 µM) in the assay with Staph. 25701; more than 64 µg/mL against E. coli Neumann (20 h). The molecule further showed a minimum inhibitory concentration (MIC) against Klebs. 57 USA (20 h) of more than 64 µg/mL.
On to `CNC(=S)NC[C@H]1CN(c2ccc(-c3ccncc3)s2)C(=O)O1` [Example 12], for which the MIC in the assay with Psdm. Bonn (setting [4]) was more than 64 µg/mL; with Staph. 9TV it was 0.5 µg/mL (≈ 1.43 µM); in the assay on Staph. 48N it was 1 µg/mL (≈ 2.87 µM); with Staph. 25701, 1 µg/mL (≈ 2.87 µM); with E. coli Neumann (setting [5]) it was more than 64 µg/mL; in the assay with Klebs. 57 USA (setting [6]) it was more than 64 µg/mL. The MIC in assay [1] is 8 µg/mL; in assay [2], 2 µg/mL (≈ 5.74 µM).
`CC(=S)NC[C@H]1CN(c2ccc(-c3ccncc3)s2)C(=O)O1` [Example 13]: the MIC was 0.25 µg/mL (≈ 0.75 µM) in the assay on Staph. 133; more than 64 µg/mL in the assay with Psdm. Bonn (setting [4]); not above 0.125 µg/mL in the assay on Staph. 9TV; 0.25 µg/mL (≈ 0.75 µM) in the assay on Staph. 25701; more than 64 µg/mL in the assay with E. coli Neumann (setting [5]); more than 64 µg/mL in the assay with Klebs. 57 USA (setting [6]). In addition, the minimum inhibitory concentration (MIC) in [3] was determined as 1 µg/mL; in assay [1], 2 µg/mL; in assay [2], 2 µg/mL (≈ 6 µM).
In the case of `CNC(=S)NC[C@H]1CN(c2ccc(-c3cccnc3)s2)C(=O)O1` [Example 14], the MIC was 1 µg/mL (≈ 2.87 µM) with Staph. 133; more than 64 µg/mL with Psdm. Bonn (setting [4]); 0.5 µg/mL (≈ 1.43 µM) against Staph. 9TV; 1 µg/mL (≈ 2.87 µM) in the assay on Staph. 48N; 1 µg/mL (≈ 2.87 µM) against Staph. 25701; more than 64 µg/mL in the assay on E. coli Neumann (setting [5]). For the same molecule, the minimum inhibitory concentration (MIC) is more than 64 µg/mL in the assay with Klebs. 57 USA (setting [6]), 4 µg/mL in assay [3], 8 µg/mL in assay [1] and 8 µg/mL (≈ 23 µM) in assay [2].
`CC(=S)NC[C@H]1CN(c2ccc(-c3cccnc3)s2)C(=O)O1` [Example 15]: the minimal inhibitory concentration (MIC) against Staph. 133 was 0.25 µg/mL (≈ 0.75 µM); in the assay with Psdm. Bonn (setting [4]) it was more than 64 µg/mL; against Staph. 9TV it was not above 0.125 µg/mL; with Staph. 48N, 0.5 µg/mL (≈ 1.5 µM); with Staph. 25701, 0.25 µg/mL (≈ 0.75 µM); with E. coli Neumann (setting [5]), more than 64 µg/mL. Besides, the MIC in the assay on Klebs. 57 USA (setting [6]) was more than 64 µg/mL; in [3], 0.5 µg/mL; in assay [1], 1 µg/mL.
`CNC(=S)NC[C@H]1CN(c2ccc3c(c2)sc(=O)n3C)C(=O)O1` [Example 20]: the MIC with Staph. 133 is 0.25 µg/mL (≈ 0.709 µM); in the assay with Psdm. Bonn (setting [4]) it was more than 64 µg/mL; against Staph. 9TV, not above 0.125 µg/mL; with Staph. 48N, 0.25 µg/mL (≈ 0.709 µM); in the assay with Staph. 25701, 0.25 µg/mL (≈ 0.709 µM); with E. coli Neumann (setting [5]), 64 µg/mL (≈ 182 µM). Besides, the minimal inhibitory concentration (MIC) in the assay on Klebs. 57 USA (setting [6]) was more than 64 µg/mL; in assay [3] it was 0.25 µg/mL; in [1], 0.25 µg/mL.
On to `CNC(=S)NC[C@H]1CN(c2ccc3nc(SC)sc3c2)C(=O)O1` [Example 23], for which the MIC in the assay with Staph. 133 was 0.25 µg/mL (≈ 0.678 µM); with Psdm. Bonn (setting [4]) it was more than 64 µg/mL; in the assay with Staph. 9TV it was 0.25 µg/mL (≈ 0.678 µM); against Staph. 48N it was 0.5 µg/mL (≈ 1.36 µM); in the assay on Staph. 25701, 0.5 µg/mL (≈ 1.36 µM); with E. coli Neumann (setting [5]) it was more than 64 µg/mL. Besides, the figures for the MIC (in the assay with Klebs. 57 USA (setting [6]); in assay [2]) were more than 64 µg/mL and 4 µg/mL (≈ 10.9 µM), respectively.
In the case of `CSc1nc2ccc(N3C[C@H](CNC(C)=S)OC3=O)cc2s1` [Example 26], the MIC is less than 0.125 µg/mL against Staph. 133; more than 64 µg/mL in the assay on Psdm. Bonn (setting [4]); not above 0.125 µg/mL against Staph. 9TV; 0.25 µg/mL (≈ 0.707 µM) in the assay with Staph. 48N; 0.25 µg/mL (≈ 0.707 µM) against Staph. 25701; more than 64 µg/mL in the assay with E. coli Neumann (setting [5]). The MIC in the assay with Klebs. 57 USA (setting [6]) is more than 64 µg/mL.
Turning to `CC(=S)NC[C@H]1CN(c2ccc3c(c2)sc(=O)n3C)C(=O)O1` [Example 42], the minimal inhibitory concentration (MIC) was less than 0.125 µg/mL in the assay on Staph. 133; more than 64 µg/mL in the assay on Psdm. Bonn (setting [4]); not above 0.125 µg/mL against Staph. 9TV; more than 0.125 µg/mL in the assay on Staph. 48N; more than 0.125 µg/mL in the assay on Staph. 25701; 64 µg/mL (≈ 190 µM) in the assay on E. coli Neumann (setting [5]). Further, in the assay with Klebs. 57 USA (setting [6]), the MIC is 64 µg/mL (≈ 190 µM).
Regarding `CC(=S)NC[C@H]1CN(c2cc3ccc(Cl)cc3s2)C(=O)O1` [Example 43], the minimum inhibitory concentration (MIC) in the assay on Staph. 133 was 0.5 µg/mL (≈ 1.47 µM); in the assay with Psdm. Bonn (setting [4]), more than 64 µg/mL; in the assay with Staph. 9TV, 0.5 µg/mL (≈ 1.47 µM); in the assay on Staph. 48N it was 0.5 µg/mL (≈ 1.47 µM); in the assay on Staph. 25701, 0.5 µg/mL (≈ 1.47 µM); in the assay with E. coli Neumann (setting [5]), more than 64 µg/mL. Besides, the MIC in the assay on Klebs. 57 USA (setting [6]) is more than 64 µg/mL.
As to `NNC(=O)c1ccncc1` [Isoniazide, reference compound], the MIC in [3] was found to be 2 µg/mL; in assay [1] it was 4 µg/mL.
